In US12479840B2, “HMG-CoA reductase degradation inducing compound” (Uppthera, priority 2020, dated 2025) one finds DC50 data, which are given here for twelve compounds.

Each structure is given as a SMILES string.

The DC50 is the concentration at which degradation of the target reaches its halfway point.

The target of the assay is T1, HMG-CoA reductase (Homo sapiens, UniProt P04035).
T1 construct: endogenous in cells; host or cells: HepG2 (Korea Cell Line Bank)
T1 sequence (P04035 1-888): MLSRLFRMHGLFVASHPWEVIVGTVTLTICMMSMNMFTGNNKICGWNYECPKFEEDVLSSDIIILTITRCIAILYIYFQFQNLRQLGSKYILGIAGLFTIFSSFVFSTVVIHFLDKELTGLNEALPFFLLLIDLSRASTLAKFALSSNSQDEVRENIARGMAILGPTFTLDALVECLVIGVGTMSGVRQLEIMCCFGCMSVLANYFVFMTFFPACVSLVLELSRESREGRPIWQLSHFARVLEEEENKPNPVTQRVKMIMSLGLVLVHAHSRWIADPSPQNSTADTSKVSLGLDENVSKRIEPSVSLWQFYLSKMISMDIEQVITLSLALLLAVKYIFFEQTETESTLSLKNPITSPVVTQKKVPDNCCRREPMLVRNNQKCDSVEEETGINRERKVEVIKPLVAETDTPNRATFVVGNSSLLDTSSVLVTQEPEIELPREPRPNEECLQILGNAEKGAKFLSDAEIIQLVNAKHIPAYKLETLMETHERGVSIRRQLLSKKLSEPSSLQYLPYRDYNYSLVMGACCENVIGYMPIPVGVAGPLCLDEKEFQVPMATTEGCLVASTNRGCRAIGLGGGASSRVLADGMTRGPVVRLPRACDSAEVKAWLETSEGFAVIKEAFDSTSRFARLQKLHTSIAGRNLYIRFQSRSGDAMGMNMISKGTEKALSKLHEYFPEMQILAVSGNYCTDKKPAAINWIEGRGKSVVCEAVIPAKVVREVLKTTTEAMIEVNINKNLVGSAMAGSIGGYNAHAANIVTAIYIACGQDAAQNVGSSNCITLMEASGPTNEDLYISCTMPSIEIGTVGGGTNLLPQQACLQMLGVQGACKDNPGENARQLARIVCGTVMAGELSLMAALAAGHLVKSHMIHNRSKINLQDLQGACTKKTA
As to the kind of experiment: HMG-CoA reductase (HMGCR) degradation in HepG2 cells by western blotting. It is filed as cell-based. Conditions: treated for 18 hours, ratio of HMG-CoA reductase to GAPDH, read-out: DC50. In outline: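 Western blot read-out: HMGCR protein probed (1:500, 16 hours at 4° C) alongside GAPDH loading control on 15 μg BCA-normalised RIPA lysates. Lysates came from HepG2 cells (P105–P110) exposed for 18 hours to a 10-point, three-fold series starting at 3 μM.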
Background: Immunoblotting shows a protein as a band on a membrane.
For the compound `C[C@H]1C=C2C=C[C@H](C)[C@H](CC[C@@H]3C[C@@H](O)CC(=O)O3)[C@H]2[C@@H](OC(=O)C(C)(C)CCC(=O)NCCOCCOCCOCCOCCOCCOCCNc2cccc3c2C(=O)N(C2CCC(=O)NC2=O)C3=O)C1` (stereo partly drawn) [Compound 6, (1S,3R,7S,8S,8aR)-8-(2-((2R,4R)-4-hydroxy-6-oxotetrahydro-2H-pyran-2-yl)ethyl)-3,7-dimethyl-1,2,3,7,8,8a-hexahydronaphthalen-1-yl 1-((2-(2,6-dioxopiperidin-3-yl)-1,3-dioxoisoindolin-4-yl)amino)-25,25-dimethyl-22-oxo-3,6,9,12,15,18-hexaoxa-21-azahexacosan-26-oate], the DC50 is below 50 nM. Turning to `C[C@H]1C=C2C=C[C@H](C)[C@H](CC[C@@H]3C[C@@H](O[Si](C)(C)C(C)(C)C)CC(=O)O3)[C@H]2[C@@H](OC(=O)NCCOCCOCC#Cc2cccc3c2C(=O)N(C2CCC(=O)NC2=O)C3=O)C1` (stereo partly drawn) [Compound 114, (1S,3R,7S,8S,8aR)-8-(2-((2R,4R)-4-((tert-butyldimethylsilyl)oxy)-6-oxotetrahydro-2H-pyran-2-yl)ethyl)-3,7-dimethyl-1,2,3,7,8,8a-hexahydronaphthalen-1-yl (2-(2-((3-(2-(2,6-dioxopiperidin-3-yl)-1,3-dioxoisoindolin-4-yl)prop-2-yn-1-yl)oxy)ethoxy)ethyl)carbamate], the DC50 is below 50 nM. In the case of `Cc1ncsc1-c1ccc(CNC(=O)[C@@H]2C[C@@H](O)CN2C(=O)[C@@H](NC(=O)C2(F)CC2)C(C)(C)C)c(OCCCCCCCCNC(=O)O[C@H]2C[C@@H](C)C=C3C=C[C@H](C)[C@H](CC[C@@H]4C[C@@H](O)CC(=O)O4)[C@H]32)c1` [Compound 165, (1S,3R,7S,8S,8aR)-8-(2-((2R,4R)-4-hydroxy-6-oxotetrahydro-2H-pyran-2-yl)ethyl)-3,7-dimethyl-1,2,3,7,8,8a-hexahydronaphthalen-1-yl (8-(2-(((2S,4R)-1-((S)-2-(1-fluorocyclopropane-1-carboxamido)-3,3-dimethylbutanoyl)-4-hydroxypyrrolidine-2-carboxamido)methyl)-5-(4-methylthiazol-5-yl)phenoxy)octyl)carbamate], the DC50 is below 50 nM. The figure for `Cc1ncsc1-c1ccc(CNC(=O)[C@@H]2C[C@@H](O)CN2C(=O)[C@@H](NC(=O)C2(F)CC2)C(C)(C)C)c(OCCc2cn(CCCNC(=O)O[C@@H]3C[C@H](C)C=C4C=C[C@@H](C)[C@@H](CC[C@@H]5C[C@@H](O)CC(=O)O5)[C@@H]43)nn2)c1` [Compound 169, (1R,3S,7R,8R,8aS)-8-(2-((2R,4R)-4-hydroxy-6-oxotetrahydro-2H-pyran-2-yl)ethyl)-3,7-dimethyl-1,2,3,7,8,8a-hexahydronaphthalen-1-yl (3-(4-(2-(2-(((2S,4R)-1-((S)-2-(1-fluorocyclopropane-1-carboxamido)-3,3-dimethylbutanoyl)-4-hydroxypyrrolidine-2-carboxamido)methyl)-5-(4-methylthiazol-5-yl)phenoxy)ethyl)-1H-1,2,3-triazol-1-yl)propyl)carbamate] is below 50 nM; for `C[C@H]1C=C2C=C[C@H](C)[C@H](CC[C@@H]3C[C@@H](O)CC(=O)O3)[C@H]2[C@@H](OC(=O)NCCCCCCCC(=O)Nc2cccc3c2C(=O)N(C2CCC(=O)NC2=O)C3=O)C1` (stereo partly drawn) [Compound 77, (1S,3R,7S,8S,8aR)-8-(2-((2R,4R)-4-hydroxy-6-oxotetrahydro-2H-pyran-2-yl)ethyl)-3,7-dimethyl-1,2,3,7,8,8a-hexahydronaphthalen-1-yl (8-((2-(2,6-dioxopiperidin-3-yl)-1,3-dioxoisoindolin-4-yl)amino)-8-oxooctyl)carbamate] it is below 50 nM.

On to `C[C@H]1C=C2C=C[C@H](C)[C@H](CC[C@@H]3C[C@@H](O)CC(=O)O3)[C@H]2[C@@H](OC(=O)NCCOCCOCCCNc2cccc3c2C(=O)N(C2CCC(=O)NC2=O)C3=O)C1` (stereo partly drawn) [Compound 93, (1S,3R,7S,8S,8aR)-8-(2-((2R,4R)-4-hydroxy-6-oxotetrahydro-2H-pyran-2-yl)ethyl)-3,7-dimethyl-1,2,3,7,8,8a-hexahydronaphthalen-1-yl (2-(2-(3-((2-(2,6-dioxopiperidin-3-yl)-1,3-dioxoisoindolin-4-yl)amino)propoxy)ethoxy)ethyl)carbamate], for which the DC50 is below 50 nM. The figure for `CO[C@H]1CC(=O)O[C@H](CC[C@@H]2[C@@H]3C(=C[C@H](C)C[C@@H]3OC(=O)NCCOCCOCCNc3cccc4c3C(=O)N(C3CCC(=O)NC3=O)C4=O)C=C[C@@H]2C)C1` (stereo partly drawn) [Compound 69, (1S,3R,7S,8S,8aR)-8-(2-((2R,4R)-4-methoxy-6-oxotetrahydro-2H-pyran-2-yl)ethyl)-3,7-dimethyl-1,2,3,7,8,8a-hexahydronaphthalen-1-yl (2-(2-(2-((2-(2,6-dioxopiperidin-3-yl)-1,3-dioxoisoindolin-4-yl)amino)ethoxy)ethoxy)ethyl)carbamate] is below 50 nM; for `C[C@H]1C=C2C=C[C@H](C)[C@H](CC[C@@H]3CC=CC(=O)O3)[C@H]2[C@@H](OC(=O)NCCOCCOCCNc2cccc3c2C(=O)N(C2CCC(=O)NC2=O)C3=O)C1` (stereo partly drawn) [Compound 153, (1S,3R,7S,8S,8aR)-3,7-dimethyl-8-(2-((R)-6-oxo-3,6-dihydro-2H-pyran-2-yl)ethyl)-1,2,3,7,8,8a-hexahydronaphthalen-1-yl (2-(2-(2-((2-(2,6-dioxopiperidin-3-yl)-1,3-dioxoisoindolin-4-yl)amino)ethoxy)ethoxy)ethyl)carbamate] it is below 50 nM; for `C[C@H]1C=C2C=C[C@H](C)[C@H](CC[C@@H]3C[C@@H](O)CC(=O)O3)[C@H]2[C@@H](OC(=O)NCCOCCNC(=O)COc2cccc3c2C(=O)N(C2CCC(=O)NC2=O)C3=O)C1` (stereo partly drawn) [Compound 129, (1S,3R,7S,8S,8aR)-8-(2-((2R,4R)-4-hydroxy-6-oxotetrahydro-2H-pyran-2-yl)ethyl)-3,7-dimethyl-1,2,3,7,8,8a-hexahydronaphthalen-1-yl (2-(2-(2-((2-(2,6-dioxopiperidin-3-yl)-1,3-dioxoisoindolin-4-yl)oxy)acetamido)ethoxy)ethyl)carbamate] it is below 50 nM.

With `C[C@H]1C=C2C=C[C@H](C)[C@H](CC[C@@H]3C[C@@H](O[Si](C)(C)C(C)(C)C)CC(=O)O3)[C@H]2[C@@H](OC(=O)NCCOCCOCCOCCNc2cccc3c2C(=O)N(C2CCC(=O)NC2=O)C3=O)C1` (stereo partly drawn) [Compound 47, (1S,3R,7S,8S,8aR)-8-(2-((2R,4R)-4-((tert-butyldimethylsilyl)oxy)-6-oxotetrahydro-2H-pyran-2-yl)ethyl)-3,7-dimethyl-1,2,3,7,8,8a-hexahydronaphthalen-1-yl (2-(2-(2-(2-((2-(2,6-dioxopiperidin-3-yl)-1,3-dioxoisoindolin-4-yl)amino)ethoxy)ethoxy)ethoxy)ethyl)carbamate], the 50% degradation concentration (DC50) is below 50 nM. Then `C[C@H]1C=C2C=C[C@H](C)[C@H](CC[C@@H]3C[C@@H](O)CC(=O)O3)[C@H]2[C@@H](OC(=O)C(C)(C)CCC(=O)NCCOCCOCCOCCOCCOCCNc2cccc3c2C(=O)N(C2CCC(=O)NC2=O)C3=O)C1` (stereo partly drawn) [Compound 5, (1S,3R,7S,8S,8aR)-8-(2-((2R,4R)-4-hydroxy-6-oxotetrahydro-2H-pyran-2-yl)ethyl)-3,7-dimethyl-1,2,3,7,8,8a-hexahydronaphthalen-1-yl 1-((2-(2,6-dioxopiperidin-3-yl)-1,3-dioxoisoindolin-4-yl)amino)-22,22-dimethyl-19-oxo-3,6,9,12,15-pentaoxa-18-azatricosan-23-oate], with below 50 nM; and `C[C@H]1C=C2C=C[C@H](C)[C@H](CC[C@@H]3C[C@@H](O[Si](C)(C)C(C)(C)C)CC(=O)O3)[C@H]2[C@@H](OC(=O)NCCCCCCCCNC(=O)COc2cccc3c2C(=O)N(C2CCC(=O)NC2=O)C3=O)C1` (stereo partly drawn) [Compound 96, (1S,3R,7S,8S,8aR)-8-(2-((2R,4R)-4-((tert-butyldimethylsilyl)oxy)-6-oxotetrahydro-2H-pyran-2-yl)ethyl)-3,7-dimethyl-1,2,3,7,8,8a-hexahydronaphthalen-1-yl (8-(2-((2-(2,6-dioxopiperidin-3-yl)-1,3-dioxoisoindolin-4-yl)oxy)acetamido)octyl)carbamate], with 50 to 500 nM.
